Test results: publication PMC4192597, “Antimicrobials, Stress and Mutagenesis” (PLoS Pathogens, 2014)
Values after ≈ are worked out from the molar mass of the structure shown. Like-named read-outs stand apart in the source and are kept apart here.

Tests used:
E. coli MG1655 [1] = assay: Minimal inhibitory concentration (MIC), micro-dilution; assay type: cell-based, Escherichia coli; details: inoculum 2×10^8 cfu/ml, 24 h, liquid MH medium, 37°C
Experimental: E. coli K-12 MG1655 was used for all experiments, grown in liquid Mueller-Hilton (MH) agar or agarose, unless otherwise indicated. All experiments were carried out at 37°C.
MICs were determined according to CLSI recommendations by a micro-dilution method with the exception that the inoculum size that was adjusted to 2×10^8 cfu/ml from a regrowth of overnight cultures to be consistent with the mutagenesis experiments. […] Polypropylene non-binding plates (Th. Geyer, Germany) were used for all experiments.

E. coli MG1655 [2] = assay: microbe, parasite or virus in culture; assay type: cell-based, Escherichia coli; details: 4 hours, 50% reduction of CFUs vs control, Mueller Hinton Broth, 37°C, five replicates, repeated twice
Experimental: The MIC50s for all antimicrobials were determined by inoculating strains grown to mid-log phase into the wells of a 96-microwell plate. Approximately 10^2 cells from overnight cultures were inoculated into tubes containing 10 ml of Mueller Hinton Broth medium, and the tubes were incubated at 37°C with strong shaking until the mid-log phase of growth (approximately 10^8 cells/ml). […] The plates were incubated at 37°C for 4 h with continuous shaking in a plate reader (Synergy 2, BioTeK). After four hours, aliquots from wells with OD^600 readings ranging from 10 to 90% values in comparison with the control, were serially diluted in sterile 0.9% NaCl, and incubated during 1 hour to allow the resolution of filaments as consequence of SOS activation, if any. Bacterial suspensions were plated in Mueller Hinton Broth agar plates to estimate the viability as colony forming units (CFUs). Five replicates per concentration were prepared and the experiments were repeated twice.

[3] = test system: E. coli stress response genes (strain MG1655); assay: Relative gene expression of stress response genes by quantitative real-time PCR; assay type: cell-based, Escherichia coli; details: qPCR; for Result, cpxA / Result, cpxR / Result, dinB / Result, lexA / Result, marR / Result, oxyR / Result, phoP / Result, phoQ / Result, recA / Result, rpoE / Result, rpoS / Result, umuC / Expression, cpxA (Envelope stress) / Expression, cpxR (Envelope stress) / Expression, dinB (SOS response) / Expression, lexA (SOS response) / Expression, marR (Independent multiple antibiotic resistance) / Expression, oxyR (Oxidative stress) / Expression, phoP (Envelope stress) / Expression, phoQ (Envelope stress) / Expression, recA (SOS response) / Expression, rpoE (Envelope stress) / Expression, rpoS (Sigma S response) / Expression, umuC (SOS response): 20 minutes exposure vs non-treated bacteria; for Result, cpxA / Result, cpxR / Result, dinB / Result, lexA / Result, marR / Result, oxyR / Result, phoP / Result, phoQ / Result, recA / Result, rpoE / Result, rpoS / Result, umuC: REST 2009 randomisation test; for Expression, cpxA (Envelope stress) / Expression, cpxR (Envelope stress) / Expression, dinB (SOS response) / Expression, lexA (SOS response) / Expression, marR (Independent multiple antibiotic resistance) / Expression, oxyR (Oxidative stress) / Expression, phoP (Envelope stress) / Expression, phoQ (Envelope stress) / Expression, recA (SOS response) / Expression, rpoE (Envelope stress) / Expression, rpoS (Sigma S response) / Expression, umuC (SOS response): normalized to arcA, mdoG, tus, Pexiganan 16, Melittin 16, Kanamycin 16, Ciprofloxacin 0.5, Lysozyme 128, Ampicillin 32 μg/ml, three biological replicates; as to Result, cpxR: key: NDE: non-differentially expressed, p-value ≥ 0,05; UP: upregulated, p-value ≤ 0,05; DOWN: downregulated, p-value ≤ 0,05; as to Result, oxyR: key: NDE: non-differentially expressed, p-value ≥ 0,05; UP: upregulated, p-value ≤ 0,05; DOWN: downregulated, p-value ≤ 0,05; as to Result, rpoE: key: NDE: non-differentially expressed, p-value ≥ 0,05; UP: upregulated, p-value ≤ 0,05; DOWN: downregulated, p-value ≤ 0,05
Experimental: Preparation of each of the six treatments and the control samples was carried out by two operators on three consecutive days, thereby comprising three biological replicates for each of the six experimental and one control groups. To obtain the starting material for the experiment, a fresh bacterial culture was grown from a glycerol stock on Mueller-Hinton (MH) agar plates at 37°C for 18–24 hours. One well-isolated colony per biological replicate was used to inoculate 2 ml of liquid MH (Sigma) in a 10 ml sterile polypropylene tube and incubated at 37°C for 16 hours with mild shaking. The overnight (ON) culture was then diluted 1∶100 in MH, subdivided into seven 10 ml aliquots and incubated in 50 ml-Falcon tubes at 37°C for 2.5 hours at 220 rpm. When the OD600 of bacterial cultures reached 0.5–0.7, respective antibiotics and AMPs were added to a concentration to match with those used in the mutagenesis experiments. These bacterial cultures were incubated for 20 minutes at 37°C with gentle shaking. Two ml of bacterial cultures from each treatment and the control were collected, immediately centrifuged at 10000 g for 2 minutes and the supernatant was removed to stop the treatment. The bacterial pellet was then resuspended in 1 ml MH, followed by an addition of 1 ml of RNAprotect Bacteria Reagent (Qiagen), 5 minutes incubation and centrifugation at 10000 g for 2 minutes at room temperature. The supernatant was discarded and the bacterial pellet was immediately frozen and stored at −80°C until RNA extraction.
Total RNA was isolated using RNeasy kit (Qiagen) according to the manufacturer's instructions and eluted in 50 µl of RNase-free water. The nucleic acid yield and purity were determined by measuring the optical density at A260/280 using a Nanodrop spectrophotometer (Thermo Scientific). RNA samples were treated with TURBO DNase (Life Technologies). Briefly, ten µg of RNA were used in a total volume of 500 µl containing 20 units of TURBO DNase, incubated for 30 minutes at 37°C, immediately followed by RNeasy (Qiagen) cleanup and elution in 30 µl of RNase-free water. Following DNase treatment, RNA integrity was assessed using Agilent RNA 6000 Nano kit and 2100 Bioanalyzer instrument (both Agilent Technologies).
High-Capacity cDNA Reverse Transcription Kit with RNase Inhibitor (Applied Biosystems) was used for cDNA synthesis. Initially, to ensure linear conversion of the transcripts, the dynamic range of reverse transcription reaction was tested by performing a standard curve with cDNA, synthesised using various input amounts of pooled RNA. Total RNA (250 ng per reaction) and random primers were used for cDNA synthesis. To obtain sufficient amount of cDNA, several batches of 20 µl RT reactions were pooled, diluted 50-fold with RNase-free water and stored in single-use aliquots at −80°C until further use. All 21 samples were tested for presence of contaminating genomic DNA by running the mdoG assay with cDNA and the respective no reverse transcription (−RT) controls.
Escherichia coli strain K-12 substrain MG1655 complete genome (accession U00096) sequence was downloaded from NCBI database (www.ncbi.nlm.nih.gov) and used for primer design. Target sequence accession number, location of the amplicon, amplicon length and primer sequences for each assay can be found in table S2. Primers were designed using Primer Express software (Applied Biosystems) and optimized for annealing temperature of 60°C. Each primer pair and amplicon were checked for secondary structure formation using Oligo Tool (Integrated DNA technologies, http://eu.idtdna.com/analyzer/Applications/OligoAnalyzer/).

[4] = test system: E. coli stress response genes; details: cited from earlier work
[5] = Escherichia coli, read-out: MIC50
[6] = ampicillin 5 μg/ml, 120 min, ref Kohanski,2007
[7] = norfloxacin 250 ng/ml, 30 min, ref Kohanski,2007
[8] = norfloxacin 250 ng/ml, 60 min, ref Kohanski,2007
[9] = norfloxacin 15 μg/ml, 20 min, gyrA+/parCr, ref Peter,2004
[10] = norfloxacin 15 μg/ml, 30min, gyrAr/parCCr cells, ref Peter,2004

Molecule | MIC50 (E. coli MG1655 [2]) | Result, cpxA [3] | Result, cpxR [3] | Result, dinB [3] | Result, lexA [3] | Result, marR [3] | Result, oxyR [3] | Result, phoP [3] | Result, phoQ [3] | Expression, cpxA (Envelope stress) [3] | Expression, cpxR (Envelope stress) [3] | Expression, dinB (SOS response) [3] | Expression, lexA (SOS response) [3] | Expression, oxyR (Oxidative stress) [3] | Expression, phoP (Envelope stress) [3] | Expression, phoQ (Envelope stress) [3] | Expression, recA (SOS response) [3] | Expression, rpoE (Envelope stress) [3] | Expression, rpoS (Sigma S response) [3] | Expression, umuC (SOS response) [3] | also measured
Human lysozyme: human lysozyme obtained from Sigma | 12.8 µg/mL | NDE | NDE | NDE | NDE | NDE | NDE | NDE | NDE | 0.902 | 0.908 | 1.116 | 1.18 | 1.334 | 0.794 | 0.667 | 1.27 | 0.784 | 0.899 | 1.056 | MIC (E. coli MG1655 [1]): 20 µg/mL; Result, recA [3]: NDE; Result, rpoE [3]: NDE; Result, rpoS [3]: NDE; Result, umuC [3]: NDE; Expression, marR (Independent multiple antibiotic resistance) [3]: 0.633
CC1(C)S[C@@H]2[C@H](NC(=O)[C@H](N)c3ccccc3)C(=O)N2[C@H]1C(=O)O [Ampicillin] |  | NDE | NDE | NDE | NDE | UP (2.5-fold) | NDE | NDE | NDE | 1.083 | 0.988 | 1.623 | 1.563 | 0.923 | 1.026 | 0.96 | 1.627 | 0.815 | 1.31 | 1.373 | MIC (E. coli MG1655 [1]; Escherichia coli, read-out: MIC): 4 µg/mL (≈ 11.4 µM); MIC50 (E. coli MG1655 [2]; [5]): 3.2 µg/mL; Expression, marR (Independent multiple antibiotic resistance) [3]: 2.498; expression, lexA (microarray database) [4, 6]: 2.143; expression, marR (microarray database) [4, 6]: 4.064; expression, phoP (microarray database) [4, 6]: -2.302; expression, rpoS (microarray database) [4, 6]: -2.26; expression, rpoE (microarray database) ([4]; ampicillin 25 μg/ml, 30 min, ref Shaw,2003): -4.545
CCn1cc(C(=O)O)c(=O)c2cc(F)c(N3CCNCC3)cc21 [norfloxacin] |  |  |  |  |  |  |  |  |  |  |  |  |  |  |  |  |  |  |  |  | expression, recA (microarray database) ([4]; norfloxacin 0.12 μg/ml, 30 min, ref Shaw,2003): 11.1; expression, rpoE (microarray database) [4, 7]: -2.308; expression, rpoS (microarray database) [4, 7]: -2.24; expression, cpxR (microarray database) [4, 8]: -2.588; expression, phoP (microarray database) [4, 8]: -2.179; expression, phoQ (microarray database) ([4]; norfloxacin 15 μg/ml, 4 min, gyrA+/parC+, ref Peter,2004): -2.778; expression, cpxA (microarray database) ([4]; norfloxacin 15 μg/ml, 10 min, gyrA+/parCr, ref Peter,2004): -2.439; expression, dinB (microarray database) [4, 9]: 2.57; expression, oxyR (microarray database) [4, 9]: 4.05; expression, lexA (microarray database) [4, 10]: 5; expression, umuC (microarray database) [4, 10]: 8.421; expression, marR (microarray database) ([4]; norfloxacin (30min) / spectinmycin, 250 ng/ml, 30 min, spectinomycin (400 μg/ml), ref Kohanski,2007): -3.206
O=C(O)c1cn(C2CC2)c2cc(N3CCNCC3)c(F)cc2c1=O [Ciprofloxacin] |  | DOWN (2.25-fold) | NDE | UP (14.2-fold) | UP (10.5-fold) | DOWN (5.35-fold) | NDE | NDE | NDE | 0.443 | 0.425 | 14.157 | 10.527 | 3.552 | 0.655 | 0.48 | 66.583 | 0.391 | 0.479 | 11.255 | MIC50 (E. coli MG1655 [2]; [5]): 0.05 µg/mL; fold downregulation, cpxA ([3]; 20 minutes exposure): 2.25 fold; fold downregulation, marR ([3]; 20 minutes exposure): 5.35 fold; fold downregulation, rpoS ([3]; 20 minutes exposure): 2.08 fold; fold upregulation, dinB ([3]; 20 minutes exposure): 14.2 fold; fold upregulation, lexA ([3]; 20 minutes exposure): 10.5 fold; fold upregulation, recA ([3]; 20 minutes exposure): 66.6 fold; fold upregulation, umuC ([3]; 20 minutes exposure): 11.26 fold; Result, recA [3]: UP (66.6-fold); Result, rpoE [3]: NDE; Result, rpoS [3]: DOWN (2.08-fold); Result, umuC [3]: UP (11.26-fold)
CC[C@H](C)[C@H](NC(=O)[C@H](CCCCN)NC(=O)[C@H](CCC(=O)O)NC(=O)[C@H](CCCCN)NC(=O)[C@H](CO)NC(=O)[C@H](CCCCN)NC(=O)[C@H](CCCNC(=N)N)NC(=O)[C@H](Cc1ccccc1)NC(=O)[C@H](Cc1ccccc1)NC(=O)[C@H](CC(=O)O)NC(=O)CNC(=O)[C@H](CC(C)C)NC(=O)[C@@H](N)CC(C)C)C(=O)NCC(=O)N[C@@H](CCCCN)C(=O)N[C@@H](CCC(=O)O)C(=O)N[C@@H](Cc1ccccc1)C(=O)N[C@@H](CCCCN)C(=O)N[C@@H](CCCNC(=N)N)C(=O)N[C@H](C(=O)N[C@H](C(=O)N[C@@H](CCC(N)=O)C(=O)N[C@@H](CCCNC(=N)N)C(=O)N[C@H](C(=O)N[C@@H](CCCCN)C(=O)N[C@@H](CC(=O)O)C(=O)N[C@@H](Cc1ccccc1)C(=O)N[C@@H](CC(C)C)C(=O)N[C@@H](CCCNC(=N)N)C(=O)N[C@@H](CC(N)=O)C(=O)N[C@@H](CC(C)C)C(=O)N[C@H](C(=O)N1CCC[C@H]1C(=O)N[C@@H](CCCNC(=N)N)C(=O)N[C@H](C(=O)N[C@@H](CCC(=O)O)C(=O)N[C@@H](CO)C(=O)O)[C@@H](C)O)C(C)C)[C@@H](C)CC)C(C)C)[C@@H](C)CC [LL-37] | 8 µg/mL |  |  |  |  |  |  |  |  |  |  |  |  |  |  |  |  |  |  |  | 
